Measurements as given in patent US12097202B2 (Kadmon Corporation, LLC, priority 2022, dated 2024).

Test system: patients with chronic GVHD
Test: Example 2: phase II randomized study of belumosudil (KD025-213) in cGVHD, efficacy and safety;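 note: allogeneic HCT recipients aged ≥12 years with persistent cGVHD after two to five earlier systemic treatment lines, responses judged by site investigators, 12-month analysis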
Conditions: for Cough / Diarrhea / Dyspnea / Fatigue / Headache / Muscle spasms / Nausea / Peripheral edema / Vomiting: All grades; for Hyperglycemia / Hypertension / Pneumonia: Grade ≥3
[1] = 200 mg BID (n = 66), of subjects with organ involved
[2] = 200 mg QD (n = 66), of subjects with organ involved
[3] = Liver-related AE, 200 mg daily (n = 66)
[4] = Liver-related AE, 200 mg twice daily (n = 66)

Excerpt: Concomitant treatment with supportive care therapies for chronic GVHD was permitted. […] Initiation of new systemic chronic GVHD therapy while on study was not permitted.
Eligible subjects were allogeneic hematopoietic cell transplant recipients aged ≥12 years with persistent cGVHD manifestations after receiving 2 to 5 prior systemic lines of therapy. Subjects were required to be receiving stable corticosteroid therapy for 2 weeks prior to screening and to have a Karnofsky or Lansky Performance Status Scale score≥60. Certain concurrent immunosuppressive medications were allowed because drug-drug interactions were not anticipated.
Randomization was stratified (1:1) by cGVHD severity and prior exposure to ibrutinib.
All responses were assessed by the study site investigators. Secondary end points included duration of response (DOR), time to response, changes in LSS summary score, failure-free survival (FFS), corticosteroid dose reductions, and overall survival (OS). DOR was measured from the time of initial PR or CR until documented progression from best response of cGVHD, time from initial response to start of additional systemic cGVHD therapy, or death. The 7-day LSS summary score was calculated based on the developer recommendations and was compared with the score from baseline; an improvement ≥7 points was considered clinically meaningful. […] Relative dose intensity (RDI) was used as a surrogate measure of drug tolerability and was defined as actual dose intensity/planned dose intensity, where dose intensity was defined as the cumulative dose over the duration of exposure (mg/d). Actual dose intensity captured the sum of actual doses received over the duration of exposure and incorporated dose reductions and/or interruptions.
The Hochberg procedure was used for multiplicity adjustment for the primary end point of best ORR. […] CI was calculated using the Clopper-Pearson interval (exact) method.

CC(C)NC(=O)COc1cccc(-c2nc(Nc3ccc4[nH]ncc4c3)c3ccccc3n2)c1 [belumosudil, 2-{3-[4-(1H-indazol-5-ylamino)-2-quinazolinyl]phenoxy}-N-(propan-2-yl) acetamide]
CR, Eyes [1]: (12) % | CR, Joints and fascia [1]: (20) % | CR, Lower GI [1]: (57) % | ORR, Esophagus [1]: (42) % | ORR, Lower GI [1]: (71) % | ORR, Lungs [1]: (22) % | ORR, Mouth [1]: (57) % | ORR, Skin [1]: (42) % | ORR, Upper GI [1]: (40) % | PR, Joints and fascia [1]: (47) % | PR, Lower GI [1]: (14) % | CR, Joints and fascia [2]: (20) % | CR, Liver [2]: (22) % | CR, Lungs [2]: (17) % | CR, Upper GI [2]: (54) % | ORR, Eyes [2]: (33) % | ORR, Joints and fascia [2]: (75) % | ORR, Liver [2]: (33) % | ORR, Lower GI [2]: (67) % | ORR, Lungs [2]: (29) % | ORR, Mouth [2]: (53) % | ORR, Skin [2]: (33) % | ORR, Upper GI [2]: (62) % | PR, Skin [2]: (18) % | Clinically significant improvement from baseline (LSS), Nonresponder (200 mg daily): (29) % | Any AE (200 mg daily (n = 66)): (99) % | Deaths (200 mg daily (n = 66)): (12) % | Drug-related AEs (200 mg daily (n = 66)): (74) % | Drug-related SAEs (200 mg daily (n = 66)): (8) % | Grade ≥3 AEs (200 mg daily (n = 66)): (56) % | Liver-related AEs (200 mg daily (n = 66)): (18) % | SAEs (200 mg daily (n = 66)): (41) % | CS discontinuation (200 mg daily, n=66, mITT): (20) % | FFS at 6 mo (200 mg daily, n=66, mITT): 73% | ORR (best, any time) (200 mg daily, n=66, mITT): (74) % | ORR for responses occurring within 6 mo of treatment (200 mg daily, n=66, mITT): (71) % | ORR for responses occurring within 12 mo of treatment (200 mg daily, n=66, mITT): (74) % | PR, within 6 mo of treatment (200 mg daily, n=66, mITT): (68) % | PR, within 12 mo of treatment (200 mg daily, n=66, mITT): (68) % | Clinically significant improvement from baseline (LSS), Nonresponder (200 mg twice daily): (33) % | Clinically significant improvement from baseline (LSS), Responder (200 mg twice daily): (71) % | Any AE (200 mg twice daily (n = 66)): (100) % | Deaths (200 mg twice daily (n = 66)): (9) % | Drug-related AEs (200 mg twice daily (n = 66)): (61) % | Drug-related SAEs (200 mg twice daily (n = 66)): (3) % | Grade ≥3 AEs (200 mg twice daily (n = 66)): (52) % | Liver-related AEs (200 mg twice daily (n = 66)): (29) % | SAEs (200 mg twice daily (n = 66)): (35) % | FFS at 6 mo (200 mg twice daily, n=66, mITT): 76% | ORR (best, any time) (200 mg twice daily, n=66, mITT): (77) % | PR, within 6 mo of treatment (200 mg twice daily, n=66, mITT): (71) % | PR, within 12 mo of treatment (200 mg twice daily, n=66, mITT): (73) % | Cough (200 mg daily (n = 66)): (30) % | Diarrhea (200 mg daily (n = 66)): (35) % | Dyspnea (200 mg daily (n = 66)): (32) % | Fatigue (200 mg daily (n = 66)): (46) % | Headache (200 mg daily (n = 66)): (20) % | Muscle spasms (200 mg daily (n = 66)): (20) % | Nausea (200 mg daily (n = 66)): (35) % | Peripheral edema (200 mg daily (n = 66)): (26) % | Vomiting (200 mg daily (n = 66)): (27) % | Cough (200 mg twice daily (n = 66)): (26) % | Diarrhea (200 mg twice daily (n = 66)): (32) % | Dyspnea (200 mg twice daily (n = 66)): (18) % | Fatigue (200 mg twice daily (n = 66)): (30) % | Headache (200 mg twice daily (n = 66)): (27) % | Muscle spasms (200 mg twice daily (n = 66)): (20) % | Nausea (200 mg twice daily (n = 66)): (27) % | Peripheral edema (200 mg twice daily (n = 66)): (20) % | Vomiting (200 mg twice daily (n = 66)): (15) % | Cough (Total (N = 132)): (28) % | Diarrhea (Total (N = 132)): (33) % | Dyspnea (Total (N = 132)): (25) % | Fatigue (Total (N = 132)): (38) % | Headache (Total (N = 132)): (24) % | Muscle spasms (Total (N = 132)): (20) % | Nausea (Total (N = 132)): (31) % | Peripheral edema (Total (N = 132)): (23) % | Vomiting (Total (N = 132)): (21) % | Hyperglycemia (200 mg daily (n = 66)): (5) % | Hypertension (200 mg daily (n = 66)): (6) % | Pneumonia (200 mg daily (n = 66)): (9) % | Hyperglycemia (200 mg twice daily (n = 66)): (5) % | Hypertension (200 mg twice daily (n = 66)): (6) % | Pneumonia (200 mg twice daily (n = 66)): (6) % | Hyperglycemia (Total (N = 132)): (5) % | Hypertension (Total (N = 132)): (6) % | Pneumonia (Total (N = 132)): (8) % | ALT increased [3]: (6) % | AST increased [3]: (8) % | Bilirubin conjugated increased [3]: (2) % | Blood alkaline phosphatase increased [3]: (6) % | GGT increased [3]: (9) % | Hypoalbuminemia [3]: (3) % | LFT increased [3]: (2) % | Transaminases increased [3]: (2) % | ALT increased [4]: (11) % | AST increased [4]: (12) %
